The values that follow come from patent publication US6521814B1, “Use of ligands for treatment of diseases responsive to retinoids” (Institut National de la Santa et de la Recherche Medicale, priority 1997, dated 2003).

One series deals with D2R promoter. Briefly: D2R promoter CAT reporter assay in transfected COS-1 cells, reporter alone. Format: cell-based, rat. The following applies: C1 reporter-transfected COS-1 cells, no receptor vector; 10^−7 M. An excerpt: Expression Vectors. The C1 reporter construct was obtained by subcloning the HindIII fragment spanning the 5 ′ promoter region of the D2R gene (positions −495 to +273), in the reporter plasmid pBLCAT3 (Luckow, B. & Schütz, G., Nucleic Acids Res. 15:5490 (1987)). The C2 reporter plasmid was constructed by subcloning the SmaI-XhoI fragment (positions −76 to +273) in the same position. The C3 and C4 reporters were generated by cloning a 29 bp synthetic oligonucleotide corresponding, respectively, to the natural rat D2R RARE sequence and the mutated one into pBLCAT2 (Luckow, B. & Schütz, G., Nucleic Acids Res. 15:5490 (1987)). The polylinker in pBLCAT2 is located upstream of the herpes simplex virus 1 (HSV1) thymidine kinase (TK) promoter, from position −105 to +51. To measure transfection efficiency the plasmid pCH110 carrying the β-galactosidase gene (Pharmacia) was used. Mouse […], as well as mouse RXRα, β and γ expression vectors were derived from the parental pSG5 vector (Green, S., et al., Nucleic Acids Res. 16:369 (1988)).
COS-1 cells were used for transient transfection assays. Cells were grown in Dulbecco's modified Eagle's medium supplemented with 5% fetal calf serum.
Several hours before transfection, the medium was replaced with fresh medium containing 5% charcoal-treated FCS. […]
In general terms: In a reporter assay the amount or activity of a reporter protein is the signal.

Series [1] has as its system RXRα−/−/RARα−/− F9 cells. Briefly: Apoptosis of F9 cells (Hoechst 33258 staining, FACS). The class given is cell-based, murine. The note with it: 100 nM, 6 d.
Series [2] has as its system RXRα−/− F9 cells. The description is as above. The class given is cell-based, murine. The following applies: 100 nM, 6 d.
The test system of the next series is RXRα−/−/RARγ−/− F9 cells. Kind of series: Proliferation of F9 cells in monolayer culture (cell counting, [3H]thymidine incorporation, cell cycle FACS). The class given is cell-based, murine. The note with it: 6 d. In general terms: Uptake of a labelled nucleoside into DNA is a usual measure of proliferation.
Series [3] deals with RARγ−/− F9 cells. Kind of series: Morphological differentiation of F9 cell aggregates into visceral endoderm (VE)-like cells (morphology, RT-PCR of markers). Details: key to proportion of outer layer of cells displaying VE morphology: +++: more than 80%; ++: 50-80%; +: 10-50%; ±: not more than 10%; (−): no visible effect. Format: cell-based, murine. The following applies: RARγ−/−, 10 d. The procedure:
(§1) F9 cells were cultured and induced to differentiate into primitive, parietal and visceral endoderm-like cells as previously described (Boylan, J., et al., Proc. Natl. Acad. Sci. USA 90:9601-9605 (1993); Clifford, J., et al., EMBO J. 15:4142-4155 (1996)).
(§2) RNA preparation, RT-PCR, and Southern blotting were performed as previously described (Bouillet, P., et al., Dev. Biol. 170:420-433 (1995); Roy, B., et al., Mol. Cell. Biol. 15:6481-6487 (1995)). The PCR primers and end-labeled oligonucleotide probes for collagen IVα1, laminin B1, α-fetoprotein (AFP), and 36B4, were described previously (Clifford, J., et al ., EMBO J. 15:4142-4155 (1996)). Transcript levels were quantified using a BAS 2000 bioimaging analyzer (Fuji Ltd., Tokyo, Japan), and were normalized to the corresponding 36B4 signals.

Series [4] concerns RARα−/− F9 cells. Briefly: Apoptosis of F9 cells (Hoechst 33258 staining, FACS). Format: cell-based, murine. Details: key: (−): no visible effect. The note with it: 6 d. The protocol: (§3) Apoptosis was analyzed by both Hoechst staining of nuclei and FACS® analysis, as previously described (Clifford, J., et al., EMBO J. 15:4142-4155 (1996)).
The test system of series [5] is RXRα−/− F9 cells. Briefly: Proliferation of F9 cells in monolayer culture (cell counting, [3H]thymidine incorporation, cell cycle FACS). The note with it: 6 d. The class given is cell-based, murine.
In series [6] the test system is RXRα−/−/RARα−/− F9 cells. Briefly: Morphological differentiation of F9 cell aggregates into visceral endoderm (VE)-like cells (morphology, RT-PCR of markers). The class given is cell-based, murine. The note with it: RXRα−/−/RARα−/−, 10 d. An excerpt: (§4) Transcript levels were quantified using a BAS 2000 bioimaging analyzer (Fuji Ltd., Tokyo, Japan), and were normalized to the corresponding 36B4 signals.

Series [7] has as its system RXRα−/− F9 cells. Described as above. The class given is cell-based, murine. The following applies: 10 d.
Description: as §4

For series [8], the system named is RXRα−/−/RARα−/− F9 cells. Kind of series: Proliferation of F9 cells in monolayer culture (cell counting, [3H]thymidine incorporation, cell cycle FACS). The note with it: 6 d. The class given is cell-based, murine.
Series [9] deals with WT F9 cells. Kind of series: Morphological differentiation of F9 cell aggregates into visceral endoderm (VE)-like cells (morphology, RT-PCR of markers). The class given is cell-based, murine. Details: key to proportion of outer layer of cells displaying VE morphology: +++: more than 80%; ++: 50-80%; +: 10-50%; ±: not more than 10%; (−): no visible effect. The following applies: WT, 10 d.
Description: (§5) Similarly, after 10 d of treatment, >80% of the outer layer of RARα^−/− and RXRα^−/−/RARα^−/− cell aggregates differentiated into VE-like cells, which were indistinguishable from those of WT and RXRα^−/− cells (FIG. 23A, compare f with panels b and d; and Table 9). […] To exclude the possibility that this very poor differentiation of the RXRα^−/−/RARγ^−/− cells could be due to some clonal variation, rather than the presence of the RXRα-null mutation in the RARγ-null background, we expressed the RXRα cDNA in RXRα^−/−/RARγ^−/− cells.
as §1, §2

The subject of series [10] is RARα−/− F9 cells. The series is described as above. Format: cell-based, murine. Details: key to proportion of outer layer of cells displaying VE morphology: +++: more than 80%; ++: 50-80%; +: 10-50%; ±: not more than 10%; (−): no visible effect. The following applies: 10 d.
Description: as §5, §1, §2

Series [11] concerns WT F9 cells. Kind of series: Apoptosis of F9 cells (Hoechst 33258 staining, FACS). Format: cell-based, murine. The note with it: 6 d. The protocol: as §3
Series [12] relates to RARγ−/− F9 cells. The description is as above. The class given is cell-based, murine. The note with it: 100 nM, 6 d. The procedure:
as §3

Series [13] deals with WT F9 cells. Briefly: Proliferation of F9 cells in monolayer culture (cell counting, [3H]thymidine incorporation, cell cycle FACS). Format: cell-based, murine. The following applies: 6 d. The protocol: (§6) Cells were plated in triplicate 3-cm culture wells (5×10^2 cells per well), and cell counting experiments were performed as previously described (Clifford, J., et al., EMBO J. 15:4142-4155 (1996)). [^3H]Thymidine incorporation assays were performed essentially as described (Clifford, J., et al., EMBO J. 15:4142-4155 (1996)), with the following modifications. […] The cell cycle profile of WT and mutant cells was determined as previously described (Clifford, J., et al. EMBO J. 15:4142-4155 (1996)).

Series [14] concerns RARα−/− F9 cells. The description is as above. The class given is cell-based, murine. The following applies: 6 d. The procedure:
as §6

Series [15] concerns RARγ−/− F9 cells. Described as above. Format: cell-based, murine. The following applies: 6 d. The procedure: as §6
A further series has as its target T1, RARα/RXRγ (Mus musculus, UniProt P11416;P28705 P11416:1-462,P28705:1-463).
T1 sequence 1: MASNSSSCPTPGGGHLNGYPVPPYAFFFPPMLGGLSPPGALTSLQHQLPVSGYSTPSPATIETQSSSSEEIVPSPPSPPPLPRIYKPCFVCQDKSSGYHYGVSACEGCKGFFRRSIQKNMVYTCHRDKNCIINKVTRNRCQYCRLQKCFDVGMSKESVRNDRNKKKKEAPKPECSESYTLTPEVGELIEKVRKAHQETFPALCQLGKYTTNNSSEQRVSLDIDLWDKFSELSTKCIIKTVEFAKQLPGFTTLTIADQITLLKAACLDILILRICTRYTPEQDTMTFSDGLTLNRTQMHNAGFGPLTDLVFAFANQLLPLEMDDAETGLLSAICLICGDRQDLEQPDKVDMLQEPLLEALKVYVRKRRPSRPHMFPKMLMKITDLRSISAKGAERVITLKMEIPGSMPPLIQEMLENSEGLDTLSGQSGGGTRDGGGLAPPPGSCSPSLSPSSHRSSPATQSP
T1 sequence 2: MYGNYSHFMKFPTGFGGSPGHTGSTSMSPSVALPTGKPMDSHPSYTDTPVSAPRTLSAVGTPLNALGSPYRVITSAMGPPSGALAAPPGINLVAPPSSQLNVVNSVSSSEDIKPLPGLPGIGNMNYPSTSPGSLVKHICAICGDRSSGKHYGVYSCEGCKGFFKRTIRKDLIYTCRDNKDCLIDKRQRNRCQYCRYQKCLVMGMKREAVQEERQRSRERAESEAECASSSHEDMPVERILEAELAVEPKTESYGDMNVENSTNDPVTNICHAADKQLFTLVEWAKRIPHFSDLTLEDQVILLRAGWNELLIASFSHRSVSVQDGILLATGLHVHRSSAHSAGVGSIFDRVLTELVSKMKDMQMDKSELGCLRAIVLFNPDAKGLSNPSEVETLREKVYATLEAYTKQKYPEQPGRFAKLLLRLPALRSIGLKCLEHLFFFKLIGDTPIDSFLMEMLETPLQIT
Briefly: cell_activity; C3 TK-CAT reporter with one RARE D2 copy, t-RA and 9-cis-RA. The note with it: tags: pSG5 expression vectors, COS-1 cells; label: 32P.

Description for RARα/RXRγ: Bars represent the mean of several independent experiments and standard deviations are indicated.
Several hours before transfection, the medium was replaced with fresh medium containing 5% charcoal-treated FCS. Cells (10^6 per 10 cm plate) were transfected by the calcium phosphate method using 2 μg of the reporter plasmid, 0.1 μg of retinoid acid receptor expression vectors and 0.5 μg of pCH110. In all transfection assays, the Bluescript (SK^-) plasmid was used as a carrier to reach 20 μg of total transfected DNA per plate.

`CC1=C(/C=C/C(C)=C\C=C\C(C)=C\C(=O)O)C(C)(C)CCC1` [9-cis-RA, 9-cis RA]: in the series on D2R promoter, the “changes in CAT activity” value is given as “no significant changes”.

As for `CC1(C)CCC(C)(C)c2cc([C@@H](O)C(=O)Nc3ccc(C(=O)O)cc3F)ccc21` [RARγ agonist], the “proportion of apoptotic nuclei and subcellular fragments (Hoechst 33258)” value is given as “±* (asterisks less than that in combination with 1 μM panRXR agonist)” in the series with RXRα−/−/RARα−/− F9 cells [1]; “±* (asterisks less than that in combination with 1 μM panRXR agonist)” in the series with RXRα−/− F9 cells [2]; “(−)” with RARα−/− F9 cells [4] (10 nM); “+ (>1-10%)” in the series with RARα−/− F9 cells [4] (100 nM); “(−)” in the series on WT F9 cells [11] (10 nM); “+ (>1-10%)” with WT F9 cells [11] (100 nM). Besides, the “proportion of apoptotic nuclei and subcellular fragments (Hoechst 33258)” value in the series with RARγ−/− F9 cells [12] is recorded as “(−)”. Also, the “number of cells in percent relative to cells grown in 0.1% ethanol” value in the series on RXRα−/−/RARγ−/− F9 cells (10 nM) was determined as 100%; with RXRα−/−/RARγ−/− F9 cells (100 nM), 100%; in the series on RXRα−/− F9 cells [5] (10 nM), 100%; in the series on RXRα−/− F9 cells [5] (100 nM), 51%; in the series with RXRα−/−/RARα−/− F9 cells [8] (10 nM) it was 100%; with RXRα−/−/RARα−/− F9 cells [8] (100 nM), 49%. Also, the “number of cells in percent relative to cells grown in 0.1% ethanol” value in the series with WT F9 cells [13] (10 nM) stood at 100%; in the series with WT F9 cells [13] (100 nM) it was 37%; with RARα−/− F9 cells [14] (10 nM), 100%; in the series on RARα−/− F9 cells [14] (100 nM), 30%; in the series on RARγ−/− F9 cells [15] (10 nM), 100%; in the series on RARγ−/− F9 cells [15] (100 nM), 100%. For the same molecule, the “proportion of outer layer of cells displaying VE morphology” value in the series on RARγ−/− F9 cells [3] (1 nM) was “(−)”; in the series with RARγ−/− F9 cells [3] (10 nM), “(−)”; in the series on RARγ−/− F9 cells [3] (100 nM), “(−)”; with RXRα−/−/RARα−/− F9 cells [6] (10 nM) it was “+ (10-50%)”; in the series with RXRα−/−/RARα−/− F9 cells [6] (100 nM), “+++ (more than 80%)”; in the series on RXRα−/− F9 cells [7] (10 nM) it was “+ (10-50%)”. For the same molecule, the “proportion of outer layer of cells displaying VE morphology” value is reported as “+++ (more than 80%)” with RXRα−/− F9 cells [7] (100 nM); “(−)” in the series with WT F9 cells [9] (1 nM); “± (not more than 10%)” in the series on WT F9 cells [9] (10 nM); “+++ (more than 80%)” in the series on WT F9 cells [9] (100 nM); “(−)” in the series on RARα−/− F9 cells [10] (1 nM); “+++ (more than 80%)” with RARα−/− F9 cells [10] (10 nM). In addition, in the series with RARα−/− F9 cells [10] (100 nM), the “proportion of outer layer of cells displaying VE morphology” value is given as “+++ (more than 80%)”.

B1: RARE D2 (dsDNA)
DNA 1: AGCTTCCTCGTGGCCAGGGTGACCCCGCG
DNA 2: CGCGGGGTCACCCTGGCCACGAGGAAGCT
Turning to B1, in the series with RARα/RXRγ, the activity was found to be 11 fold.
